According to the supplement of paper PMC10307832:

Key:
Test in all cases: relative viability (nuclei count vs DMSO), 5 days (fraction); higher = more cells survive
Bemcentinib + Trametinib = compound: Nc1nc(Nc2ccc3c(c2)CC[C@@H](N2CCCC2)CC3)nn1-c1cc2c(nn1)-c1ccccc1CCC2 [Bemcentinib] + CC(=O)Nc1cccc(-n2c(=O)n(C3CC3)c(=O)c3c(Nc4ccc(I)cc4F)n(C)c(=O)c(C)c32)c1 [Trametinib] (partner 0.02 µM)
Summary of the method: (§1)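 Relative viability was taken as the ratio of nuclei in treated wells to nuclei in vehicle wells. Lung cancer cell lines in 1536-well plates received compounds by pin tool one day after seeding, either one drug alone or a fixed anchor-drug dose plus five library-drug doses (not always all listed) in √10 steps. Nuclei were counted on 4× images after 5 days of treatment, and values are medians of duplicate plates.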

[1] = compound: CC1=CC=C(C=C1)C(=O)CN2C3=C(CCCC3)SC2=N [Pifithrin_alpha] + Nc1ncn([C@H]2C[C@H](O)[C@@H](CO)O2)c(=O)n1 [Decitabine] (partner 2 µM)
Summary of the method: as §1

Axitinib + Dasatinib = compound: CNC(=O)c1ccccc1Sc1ccc2c(/C=C/c3ccccn3)n[nH]c2c1 [Axitinib] + Cc1nc(Nc2ncc(C(=O)Nc3c(C)cccc3Cl)s2)cc(N2CCN(CCO)CC2)n1 [Dasatinib] (partner 0.075 µM)
Summary of the method: as §1

Bemcentinib + Bortezomib = compound: Nc1nc(Nc2ccc3c(c2)CC[C@@H](N2CCCC2)CC3)nn1-c1cc2c(nn1)-c1ccccc1CCC2 [Bemcentinib] + CC(C)C[C@H](NC(=O)[C@H](Cc1ccccc1)NC(=O)c1cnccn1)B(O)O [Bortezomib] (partner 0.002 µM)
Summary of the method: as §1

Cell Line	relative viability (Bemcentinib + Trametinib; first compound 0.04 µM)	relative viability (Bemcentinib + Trametinib; first compound 0.1265 µM)	relative viability (Bemcentinib + Trametinib; first compound 0.4 µM)	relative viability (Bemcentinib + Trametinib; first compound 1.265 µM)	relative viability (Bemcentinib + Trametinib; first compound 4 µM)	relative viability ([1]; first compound 1 µM)	relative viability ([1]; first compound 3.162 µM)	relative viability ([1]; first compound 10 µM)	relative viability ([1]; first compound 31.62 µM)	relative viability ([1]; first compound 100 µM)	relative viability (Axitinib + Dasatinib; first compound 0.005 µM)	relative viability (Axitinib + Dasatinib; first compound 0.01581 µM)	relative viability (Axitinib + Dasatinib; first compound 0.05 µM)	relative viability (Axitinib + Dasatinib; first compound 0.1581 µM)	relative viability (Axitinib + Dasatinib; first compound 0.5 µM)	relative viability (Bemcentinib + Bortezomib; first compound 0.04 µM)	relative viability (Bemcentinib + Bortezomib; first compound 0.1265 µM)	relative viability (Bemcentinib + Bortezomib; first compound 0.4 µM)	relative viability (Bemcentinib + Bortezomib; first compound 1.265 µM)	relative viability (Bemcentinib + Bortezomib; first compound 4 µM)
NCI-H1975	0.282	0.399	0.365	0.36	0.344	0.663	0.339	0.306	0.311	0.279	0.413	0.342	0.393	0.347	0.39	0.381	0.347	0.417	0.433	0.44
NCI-H661	0.62	0.678	0.604	0.553	0.595	0.536	0.591	0.587	0.542	0.469	1.01	0.737	0.843	0.83	0.927	0.782	0.92	0.887	0.772	0.899
NCI-H1651	0.85	0.831	0.788	0.951	0.852	0.166	0.642	0.569	0.537	0.635	0.482	0.396	0.409	0.404	0.502	0.955	1.05	1.03	0.745	0.878
NCI-H647	0.493	0.545	0.538	0.392	0.634	0.442	0.403	0.376	0.339	0.406	0.206	0.182	0.194	0.18	0.126	1.18	1.14	1.24	0.811	1.11
HCC-78	0.735	0.746	0.936	0.809	0.801		0.623	0.673	0.623	0.56	0.328	0.288	0.534	0.387	0.329	0.485	0.516	0.556	0.541	0.491
NCI-H2126	0.639	0.583	0.588	0.581	0.585	0.518	0.594	0.576	0.49	0.548	0.625	0.635	0.64	0.565	0.578	1.11	1.07	1.18	1.16	1.13
SK-LU-1	0.463	0.514	0.493	0.547	0.531	0.646	0.763	0.622	0.535	0.698	0.163	0.186	0.171	0.181	0.215	1.02	1.35	1.38	1.3	1.25
LC-2-ad	0.946	0.963	0.952	0.98	0.962	0.786	0.73	0.811	0.683	0.675	0.526	0.572	0.425	0.546	0.486	1	1.01	1.11	0.968	0.982
NCI-H23	0.363	0.432	0.353	0.429	0.466	0.317	0.316	0.317	0.283	0.337	1.04	0.872	0.933	0.778	0.803	1.16	1.14	1.01	1.17	1.14
SW 1573	0.521	0.488	0.658	0.572	0.654	0.516	0.449	0.509		0.587	0.586	0.564	0.796	0.365	0.424	1.09	0.973	1.14	0.97	1.15
HCC-15	0.389	0.365	0.44	0.368	0.42	0.657	0.738	0.573	0.531	0.456	0.658	0.673	0.658	0.56	0.622	0.931	1.19	1.12	1	1.07
H3255		0.749	0.696	0.674	0.706	0.581	0.66	0.646	0.389	0.572	0.351	0.341	0.359	0.38	0.373	0.648	0.863	0.767	0.803	0.715
COR-L 105	0.453	0.48	0.458	0.39	0.377	0.652	0.622	0.62	0.646	0.581	0.318	0.327	0.417	0.303	0.415	0.766	0.71	1.04	0.739	0.74
NCI-H838	0.501	0.535	0.533	0.432	0.534	0.427	0.473	0.441	0.387	0.389	0.288	0.352	0.342	0.282	0.262	1.01	0.748	0.986	0.763	0.834
EKVX	0.32	0.372	0.351	0.491	0.34	0.343	0.553	0.319	0.32	0.368	0.602	0.31	0.334	0.435	0.507	1.02	1.36	1.03	0.996	0.995
RERF-LC-KJ	0.953	0.968	0.863	0.818	0.96	0.681	0.621	0.562	0.382	0.451	0.853	0.898	0.998	0.822	0.904	1.1	1.29	1.3	1.21	1.09
